Test results published in patent publication US7759331B2, “Pyridine-containing macroheterococylic compounds as kinase inhibitors” (Janssen Pharmaceutica NV, priority 2006, dated 2010).

How the values were obtained:
Assay in all cases: Protein kinase selectivity panel
Assay type in all cases: biochemical
Details in all cases: 1.0 μM compound, 10 μM ATP
[1] = target: BTK(h) (Homo sapiens, UniProt Q06187)
Method in brief: (§1)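 Kinase, its appropriate substrate, and 10 μM ATP were combined with 1.0 μM compound. Phosphorylation was then allowed to proceed within the time-linear range and measured.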

[2] = target: T1, Bmx(h) (Homo sapiens, UniProt P51813)
T1 sequence (P51813 1-675): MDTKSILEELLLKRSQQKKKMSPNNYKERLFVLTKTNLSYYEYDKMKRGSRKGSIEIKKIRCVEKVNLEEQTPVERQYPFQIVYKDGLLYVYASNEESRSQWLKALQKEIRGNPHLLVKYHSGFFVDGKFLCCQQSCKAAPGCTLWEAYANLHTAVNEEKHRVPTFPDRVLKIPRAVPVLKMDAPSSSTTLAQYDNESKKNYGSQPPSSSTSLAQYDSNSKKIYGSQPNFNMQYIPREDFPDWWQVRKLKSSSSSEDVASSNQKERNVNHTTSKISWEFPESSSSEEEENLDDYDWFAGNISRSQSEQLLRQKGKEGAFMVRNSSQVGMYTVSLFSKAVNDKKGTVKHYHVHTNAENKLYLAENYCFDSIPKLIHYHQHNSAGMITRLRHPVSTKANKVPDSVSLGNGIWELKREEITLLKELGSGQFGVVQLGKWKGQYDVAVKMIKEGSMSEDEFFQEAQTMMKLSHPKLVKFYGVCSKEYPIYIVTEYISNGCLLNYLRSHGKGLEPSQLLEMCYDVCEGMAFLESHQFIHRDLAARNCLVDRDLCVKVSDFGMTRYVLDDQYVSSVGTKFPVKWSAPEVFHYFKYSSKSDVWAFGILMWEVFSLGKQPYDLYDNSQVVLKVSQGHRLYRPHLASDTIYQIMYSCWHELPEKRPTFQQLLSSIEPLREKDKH
Method in brief: as §1

[3] = target: CDK1/cyclinB(h) (Homo sapiens, UniProt P06493)
Method in brief: as §1

[4] = target: CDK2/cyclinA(h) (Homo sapiens, UniProt P24941)
Method in brief: as §1

[5] = target: CSK(h) (Homo sapiens, UniProt P41240)
Method in brief: as §1

[6] = target: T2, IKKβ(h) (Homo sapiens, UniProt O14920)
T2 sequence (O14920 1-756): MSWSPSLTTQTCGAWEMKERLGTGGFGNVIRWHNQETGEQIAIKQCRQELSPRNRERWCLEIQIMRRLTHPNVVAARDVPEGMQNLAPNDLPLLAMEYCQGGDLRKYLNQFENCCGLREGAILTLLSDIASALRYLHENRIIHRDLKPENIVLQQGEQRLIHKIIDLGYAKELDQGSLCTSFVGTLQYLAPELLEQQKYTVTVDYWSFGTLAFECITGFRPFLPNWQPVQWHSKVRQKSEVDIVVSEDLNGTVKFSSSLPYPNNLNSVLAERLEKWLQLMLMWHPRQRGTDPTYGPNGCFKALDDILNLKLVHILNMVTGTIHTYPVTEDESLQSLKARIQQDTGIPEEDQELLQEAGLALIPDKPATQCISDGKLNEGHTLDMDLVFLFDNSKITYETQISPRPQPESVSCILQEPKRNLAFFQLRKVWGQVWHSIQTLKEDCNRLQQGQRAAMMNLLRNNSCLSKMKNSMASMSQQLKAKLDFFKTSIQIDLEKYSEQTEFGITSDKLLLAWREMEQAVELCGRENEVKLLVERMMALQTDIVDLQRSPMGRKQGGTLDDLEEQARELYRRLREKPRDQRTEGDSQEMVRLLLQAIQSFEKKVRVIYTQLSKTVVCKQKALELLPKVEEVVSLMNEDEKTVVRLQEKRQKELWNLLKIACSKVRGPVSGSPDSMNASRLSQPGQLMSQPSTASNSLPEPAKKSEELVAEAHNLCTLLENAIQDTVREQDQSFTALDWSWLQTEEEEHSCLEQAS
Method in brief: as §1

[7] = target: T3, MKK4(m) (Mus musculus, UniProt P47809)
T3 sequence (P47809 1-397): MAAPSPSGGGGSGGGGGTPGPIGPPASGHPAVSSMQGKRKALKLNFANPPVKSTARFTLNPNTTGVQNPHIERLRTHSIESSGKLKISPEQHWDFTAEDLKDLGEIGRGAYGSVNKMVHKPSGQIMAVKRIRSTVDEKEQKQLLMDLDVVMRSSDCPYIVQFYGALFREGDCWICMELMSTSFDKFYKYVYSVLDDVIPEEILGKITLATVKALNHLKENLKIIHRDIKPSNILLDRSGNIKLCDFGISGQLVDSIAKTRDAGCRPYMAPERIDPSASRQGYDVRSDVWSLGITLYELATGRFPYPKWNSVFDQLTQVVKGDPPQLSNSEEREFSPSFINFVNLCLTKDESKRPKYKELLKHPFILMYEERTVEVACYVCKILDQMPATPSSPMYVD
Method in brief: as §1

[8] = target: T4, MKK6(h) (Homo sapiens, UniProt P52564)
T4 sequence (P52564 1-334): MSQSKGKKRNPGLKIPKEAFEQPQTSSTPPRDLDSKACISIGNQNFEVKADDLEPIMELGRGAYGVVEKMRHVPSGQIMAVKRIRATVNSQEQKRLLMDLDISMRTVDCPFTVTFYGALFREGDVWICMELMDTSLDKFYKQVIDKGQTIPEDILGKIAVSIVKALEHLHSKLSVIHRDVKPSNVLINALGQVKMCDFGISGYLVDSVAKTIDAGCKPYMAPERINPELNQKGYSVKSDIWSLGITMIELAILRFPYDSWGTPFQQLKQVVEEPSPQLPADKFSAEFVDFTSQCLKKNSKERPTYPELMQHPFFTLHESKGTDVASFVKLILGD
Method in brief: as §1

[9] = target: PDGFRα(h) (Homo sapiens, UniProt P16234)
Method in brief: as §1

[10] = target: PKCγ(h) (Homo sapiens, UniProt P05129)
Method in brief: as §1

[11] = target: ROCK-II(r) (Rattus norvegicus, UniProt Q62868)
Method in brief: as §1

[12] = target: Syk(h) (Homo sapiens, UniProt P43405)
Method in brief: as §1

Sequence of CDK1/cyclinB(h) (P06493 whole entry): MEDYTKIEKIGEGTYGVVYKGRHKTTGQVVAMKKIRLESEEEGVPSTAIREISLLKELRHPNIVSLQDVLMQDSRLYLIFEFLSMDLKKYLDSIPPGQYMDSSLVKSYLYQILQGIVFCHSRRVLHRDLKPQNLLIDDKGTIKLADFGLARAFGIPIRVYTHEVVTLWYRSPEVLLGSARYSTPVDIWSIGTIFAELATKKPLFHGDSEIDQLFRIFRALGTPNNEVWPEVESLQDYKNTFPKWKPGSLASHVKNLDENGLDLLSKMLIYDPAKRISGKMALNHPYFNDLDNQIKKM
Sequence of CDK1/cyclinB(h) (P14635 whole entry partner): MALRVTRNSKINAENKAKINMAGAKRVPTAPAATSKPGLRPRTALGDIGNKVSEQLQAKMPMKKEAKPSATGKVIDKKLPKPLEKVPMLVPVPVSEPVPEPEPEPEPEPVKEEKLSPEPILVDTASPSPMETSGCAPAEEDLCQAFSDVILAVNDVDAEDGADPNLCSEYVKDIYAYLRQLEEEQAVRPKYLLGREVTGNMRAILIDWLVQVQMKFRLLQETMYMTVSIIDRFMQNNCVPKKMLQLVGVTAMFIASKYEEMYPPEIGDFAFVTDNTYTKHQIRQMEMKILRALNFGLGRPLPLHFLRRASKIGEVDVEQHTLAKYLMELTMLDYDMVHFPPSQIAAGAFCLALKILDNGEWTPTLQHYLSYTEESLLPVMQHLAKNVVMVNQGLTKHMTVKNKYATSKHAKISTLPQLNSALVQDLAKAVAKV
Sequence of BTK(h) (Q06187 whole entry): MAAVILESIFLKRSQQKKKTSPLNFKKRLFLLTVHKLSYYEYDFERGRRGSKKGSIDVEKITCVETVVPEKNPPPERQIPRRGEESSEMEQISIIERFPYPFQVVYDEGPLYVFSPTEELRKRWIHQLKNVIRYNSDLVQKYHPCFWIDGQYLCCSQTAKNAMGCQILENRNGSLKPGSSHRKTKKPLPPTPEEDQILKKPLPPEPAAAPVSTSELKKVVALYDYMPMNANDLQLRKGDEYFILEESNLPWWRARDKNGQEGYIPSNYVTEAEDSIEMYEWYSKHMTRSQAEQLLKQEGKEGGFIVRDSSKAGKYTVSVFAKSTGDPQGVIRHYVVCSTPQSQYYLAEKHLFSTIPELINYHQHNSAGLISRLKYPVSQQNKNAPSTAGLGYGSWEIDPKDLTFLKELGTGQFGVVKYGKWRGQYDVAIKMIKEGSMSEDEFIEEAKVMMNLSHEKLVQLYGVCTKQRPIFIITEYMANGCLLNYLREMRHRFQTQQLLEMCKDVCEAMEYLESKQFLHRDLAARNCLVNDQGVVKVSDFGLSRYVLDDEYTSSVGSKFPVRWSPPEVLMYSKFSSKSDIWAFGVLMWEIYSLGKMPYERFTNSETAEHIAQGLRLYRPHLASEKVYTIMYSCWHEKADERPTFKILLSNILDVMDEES
Sequence of PDGFRα(h) (P16234 24-1089): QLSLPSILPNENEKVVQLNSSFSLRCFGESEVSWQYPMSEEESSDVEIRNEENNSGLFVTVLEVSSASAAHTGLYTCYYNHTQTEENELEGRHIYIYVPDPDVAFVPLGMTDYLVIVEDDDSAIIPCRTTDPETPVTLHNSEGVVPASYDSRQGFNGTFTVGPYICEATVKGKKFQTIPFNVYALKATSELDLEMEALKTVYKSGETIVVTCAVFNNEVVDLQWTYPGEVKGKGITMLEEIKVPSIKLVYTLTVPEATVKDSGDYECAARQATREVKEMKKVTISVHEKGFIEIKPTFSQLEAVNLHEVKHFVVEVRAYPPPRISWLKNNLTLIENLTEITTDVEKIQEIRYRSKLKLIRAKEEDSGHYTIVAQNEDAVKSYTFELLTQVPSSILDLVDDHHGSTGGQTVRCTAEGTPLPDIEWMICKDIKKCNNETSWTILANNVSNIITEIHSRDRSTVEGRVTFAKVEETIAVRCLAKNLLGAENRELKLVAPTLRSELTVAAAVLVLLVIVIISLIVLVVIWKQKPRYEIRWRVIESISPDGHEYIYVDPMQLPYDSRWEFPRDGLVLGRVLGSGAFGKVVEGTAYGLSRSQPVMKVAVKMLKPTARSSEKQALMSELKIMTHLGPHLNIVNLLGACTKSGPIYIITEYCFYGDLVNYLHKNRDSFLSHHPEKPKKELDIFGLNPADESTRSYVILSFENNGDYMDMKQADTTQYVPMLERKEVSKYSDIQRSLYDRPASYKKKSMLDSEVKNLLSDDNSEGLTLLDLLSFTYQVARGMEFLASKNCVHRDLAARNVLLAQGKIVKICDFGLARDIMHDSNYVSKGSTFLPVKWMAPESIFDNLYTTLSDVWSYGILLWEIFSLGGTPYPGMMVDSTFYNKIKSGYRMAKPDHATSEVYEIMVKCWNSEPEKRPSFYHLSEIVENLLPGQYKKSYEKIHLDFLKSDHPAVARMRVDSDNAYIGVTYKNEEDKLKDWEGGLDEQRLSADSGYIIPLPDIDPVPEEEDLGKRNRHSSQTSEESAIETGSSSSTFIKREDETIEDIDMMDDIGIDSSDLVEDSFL
Sequence of ROCK-II(r) (Q62868 whole entry): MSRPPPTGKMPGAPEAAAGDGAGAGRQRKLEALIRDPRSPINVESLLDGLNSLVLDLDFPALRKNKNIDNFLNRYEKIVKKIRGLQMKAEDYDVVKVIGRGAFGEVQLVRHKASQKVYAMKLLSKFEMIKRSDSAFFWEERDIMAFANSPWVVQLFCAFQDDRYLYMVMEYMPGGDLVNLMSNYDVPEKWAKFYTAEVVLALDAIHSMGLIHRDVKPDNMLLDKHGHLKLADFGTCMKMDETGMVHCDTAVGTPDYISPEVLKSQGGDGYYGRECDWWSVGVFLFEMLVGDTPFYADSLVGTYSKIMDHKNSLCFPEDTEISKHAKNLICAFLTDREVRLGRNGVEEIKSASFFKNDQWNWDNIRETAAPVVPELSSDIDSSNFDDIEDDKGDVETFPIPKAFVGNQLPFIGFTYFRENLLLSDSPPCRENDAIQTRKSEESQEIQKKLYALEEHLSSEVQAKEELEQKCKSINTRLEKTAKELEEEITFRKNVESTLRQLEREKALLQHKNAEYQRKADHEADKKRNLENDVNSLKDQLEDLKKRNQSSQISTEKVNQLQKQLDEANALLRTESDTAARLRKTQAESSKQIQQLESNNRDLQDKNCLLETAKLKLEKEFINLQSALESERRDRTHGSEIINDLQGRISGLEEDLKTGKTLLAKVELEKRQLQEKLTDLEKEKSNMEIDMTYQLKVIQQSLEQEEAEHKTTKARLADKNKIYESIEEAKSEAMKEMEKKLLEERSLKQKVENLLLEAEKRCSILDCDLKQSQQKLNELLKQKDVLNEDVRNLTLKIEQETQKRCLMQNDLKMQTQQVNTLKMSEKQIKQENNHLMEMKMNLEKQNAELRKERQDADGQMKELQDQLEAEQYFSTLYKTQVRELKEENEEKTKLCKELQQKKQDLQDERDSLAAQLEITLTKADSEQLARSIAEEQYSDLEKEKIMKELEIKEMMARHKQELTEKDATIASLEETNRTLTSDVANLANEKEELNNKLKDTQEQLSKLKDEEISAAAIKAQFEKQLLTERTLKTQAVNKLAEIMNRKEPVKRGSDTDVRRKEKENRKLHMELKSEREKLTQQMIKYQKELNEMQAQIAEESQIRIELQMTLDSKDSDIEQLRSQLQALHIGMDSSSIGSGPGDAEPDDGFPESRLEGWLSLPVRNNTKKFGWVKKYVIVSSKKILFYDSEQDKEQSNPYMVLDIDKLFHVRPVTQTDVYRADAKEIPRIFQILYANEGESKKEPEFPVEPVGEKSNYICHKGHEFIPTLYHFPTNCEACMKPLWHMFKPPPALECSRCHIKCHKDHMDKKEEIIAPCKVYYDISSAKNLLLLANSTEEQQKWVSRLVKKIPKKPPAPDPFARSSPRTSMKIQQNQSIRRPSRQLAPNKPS

Activity at Protein Kinase Assays (% of control), BTK(h) [1] | Activity at Protein Kinase Assays (% of control), Bmx(h) [2] | Activity at Protein Kinase Assays (% of control), CDK1/cyclinB(h) [3] | Activity at Protein Kinase Assays (% of control), CDK2/cyclinA(h) [4] | Activity at Protein Kinase Assays (% of control), CSK(h) [5] | Activity at Protein Kinase Assays (% of control), IKKβ(h) [6] | Activity at Protein Kinase Assays (% of control), MKK4(m) [7] | Activity at Protein Kinase Assays (% of control), MKK6(h) [8] | Activity at Protein Kinase Assays (% of control), PDGFRα(h) [9] | Activity at Protein Kinase Assays (% of control), PKCγ(h) [10] | Activity at Protein Kinase Assays (% of control), ROCK-II(r) [11] | Activity at Protein Kinase Assays (% of control), Syk(h) [12] | SMILES
106 % of control | 173 % of control | 80 % of control | 88 % of control | 125 % of control | 125 % of control | 119 % of control | 91 % of control | 126 % of control | 99 % of control | 83 % of control | 105 % of control | O=C1NC(=O)C2=C1c1cn(c3ccccc13)CCCc1cc(nc(N3CCCC3)c1)CCCn1cc2c2ccccc21 [Cpd 6, 20-pyrrolidin-1-yl-4,14,19,26-tetraazaheptacyclo[24.6.1.1^7,14.1^18,22.0^2,6.0^8,13.0^27,32]pentatriaconta-1(33),2(6),7(35),8,10,12,18(34),19,21,27,29,31-dodecaene-3,5-dione]
104 % of control | 176 % of control | 98 % of control | 88 % of control | 129 % of control | 130 % of control | 113 % of control | 85 % of control | 113 % of control | 102 % of control | 91 % of control | 109 % of control | O=C1NC(=O)C2=C1c1cn(c3ccccc13)CCCc1ccc(c(N3CCCC3)n1)CCCn1cc2c2ccccc21 [Cpd 7, 31-pyrrolidin-1-yl-5,15,25,30-tetraazaheptacyclo[27.2.2.1^5,12.1^18,25.0^6,11.0^13,17.0^19,24]pentatriaconta-1(31),6,8,10,12(35),13(17),18(34),19,21,23,29,32-dodecaene-14,16-dione]
105 % of control | 101 % of control | 78 % of control | 120 % of control | 95 % of control | 128 % of control | 130 % of control | 102 % of control | 107 % of control | 91 % of control | 101 % of control | 86 % of control | CN(C)c1nc2ccc1CCCCn1cc(c3ccccc31)C1=C(C(=O)NC1=O)c1cn(c3ccccc13)CCC2 [Cpd 1, 31-(dimethylamino)-5,15,25,32-tetraazaheptacyclo[28.2.2.1^5,12.1^18,25.0^6,11.0^13,17.0^19,24]hexatriaconta-1(32),6,8,10,12(36),13(17),18(35),19,21,23,30,33-dodecaene-14,16-dione]
106 % of control | 159 % of control | 98 % of control | 80 % of control | 133 % of control | 124 % of control | 119 % of control | 86 % of control | 119 % of control | 107 % of control | 92 % of control | 101 % of control | CN(C)c1cc2cc(n1)CCCn1cc(c3ccccc31)C1=C(C(=O)NC1=O)c1cn(c3ccccc13)CCC2 [Cpd 2, 20-(dimethylamino)-4,14,19,26-tetraazaheptacyclo[24.6.1.1^7,14.1^18,22.0^2,6.0^8,13.0^27,32]pentatriaconta-1(33),2(6),7(35),8,10,12,18(34),19,21,27,29,31-dodecaene-3,5-dione]
